From patent US20260001946A1, “TREATMENT OF A DISEASE OR CONDITION IN A TISSUE ORIGINATING FROM THE ENDODERM” (BT Bidco, Inc., priority 2018, published 2026)
Where a name gives a salt, the structure may show the parent alone. Read-outs that look alike come from different tables or passages of the source.

Columns and labels:
[1] = tested on: IL-6, GM-CSF, IL-15, IL-2, IL-12, IL-13, TNF-α, INF-γ
[2] = Tacrolimus blood concentration and AUC0-12 hours after IC or PO administration; conditions: female, Yorkshire-Cross, swine, in vivo
Description: FIG. 77 is a graph showing the mean concentration of tacrolimus in the blood 1 hour, 2 hours, 3 hours, 4 hours, 6 hours and 12 hours after intracecal (IC) or oral administration (PO) of tacrolimus to swine as described in Example 13.
FIG. 78 is a graph showing the AUC0-12 hours of tacrolimus in the blood after intracecal (IC) or oral administration (PO) of tacrolimus in swine as described in Example 13.
FIG. 87 is a graph showing the mean concentration of tacrolimus in the blood of swine 1 hour, 2 hours, 3 hours, 4 hours, 6 hours, and 12 hours after intracecal (IC) or oral administration (PO) of tacrolimus as described in Example 10.
FIG. 88 is a graph showing the AUC0-12 hours of tacrolimus in the blood of swine after intracecal (IC) or oral administration (PO) of tacrolimus as described in Example 10.

[3] = Tissue, plasma, rectal sample and GI content pharmacokinetics of tacrolimus, oral vs intra-cecal ingestible device (Example 10); parameters: species or system Yorkshire-Cross farm swine; conditions: in vivo
Description: The primary objective of this study was to compare the tissue, plasma, rectal sample, and GI content pharmacokinetics of tacrolimus through oral versus intra-cecal ingestible device delivery in normal Yorkshire-Cross farm swine.
(§1) No further randomization procedure was employed.
Animals in Group 1 received an ingestible device containing 0.8 mL of vehicle solution (80% alcohol, 20% HCO-60). Animals in Group 2 received orally […] liquid formulation of tacrolimus at 4 mg/0.8 mL per animal (Prograf: 5 mg/mL). Animals in Group 3 received intra-cecally an ingestible device containing tacrolimus at 1 mg in 0.8 mL per ingestible device. Animals in Group 4 received intra-cecally an ingestible device containing tacrolimus at 2 mg in 0.8 mL per ingestible device. Animals in Group 5 received intra-cecally an ingestible device containing tacrolimus at 4 mg in 0.8 mL per ingestible device. To control for potential confounding effects of the surgery, all groups fast on Day −11 at least 24 hr before being subjected to anesthesia followed by surgical placements of a cecal port by a veterinary surgeon at Day −10. All animals were fasted for at least 12 hr prior to dosing on Day 1. Animals were dosed via either intra-cecal dosing (IC) or oral dosing (PO) at Day 1 (between 6-8 p.m.). All animals resumed feeding at approximately 4 hours after dose (11-12 p.m. after dosing).
Animals in Group 1 (Vehicle Control) were administered a single intra-cecal ingestible device containing 0.8 mL Vehicle solution (80% alcohol, 20% castor oil (HCO-60) on Day 1. On Day −10 the animals were anesthetized, and a veterinary surgeon surgically placed an intra-cecal port in each animal. On Day 1, each animal was placed into a sling then a single intra-cecal ingestible device containing 0.8 mL vehicle solution (80% alcohol, 20% castor oil (HCO-60)) is introduced by the veterinary surgeon into the cecum via the cecal port in each animal. Following ingestible device placement, the animals were removed from the slings and placed back into their pens with water. All animals resumed feeding at approximately 4 hours after dose. […] A total of 60 samples were collected.
Approximately 200˜400 mg of rectal content were collected, if available, with a fecal swab (Copan Diagnostics Nylon Flocked Dry Swabs, 502CS01). The fecal swab was pre-weighed and weighed after collection in the collection tube (Sterile Tube and Cap No Media, PFPM913S), and the sample weight was recorded. The fecal swab was broken via the breakpoint, and was stored in the collection tube, and immediately frozen at −70° C. […] Immediately following euthanasia, tissue was collected.
For tissue necropsy, small intestine fluid and cecal fluid were collected separately from all the animals into two separate square plastic bottles, and stored at −20° C. The length and diameter of the cecum and the colon was measured from one animal in each group and recorded for reference. Tissues were collected for pharmacokinetic analyses and include mesenteric lymph nodes, a Peyer's Patch, and five gastrointestinal sections, including cecum, proximal colon, transverse colon, distal colon, and rectum. All samples were weighed, and the tissue sample weights were recorded. […] Around 3 grams of the total punched sample were collected into a pre-weighed 15-mL conical tube, and the tissue weight was recorded. […]

[4] = female, Yorkshire-Cross, swine, in vivo, po, 0.09 mg/kg
Description: FIG. 76 is a graph showing the mean concentration of tacrolimus in the cecum tissue and the proximal colon tissue 12 hours after intracecal or oral administration of tacrolimus to swine as described in Example 10.
FIG. 79 is a graph showing the mean concentration of tacrolimus in the cecum tissue, the proximal colon tissue, the spiral colon tissue, the transverse colon tissue, and the distal colon tissue after intracecal (IC) or oral administration (PO) of tacrolimus in swine as described in Example 13. ****P<0.0001, ***P<0.001.
FIG. 90 is a graph showing the mean concentration of tacrolimus in the cecum, the proximal colon, the spiral colon, the transverse colon, and the distal colon of swine after intracecal (IC) or oral administration (PO) of tacrolimus as described in Example 10.

[5] = Pharmacokinetics of oral vs intra-cecal tacrolimus: blood, rectal contents, GI tissue and luminal content (Example 13); parameters: species or system Yorkshire-Cross farm swine; conditions: in vivo
Source text: as §1

Structure (SMILES): C[C@@H]1CCN(C(=O)CC#N)C[C@@H]1N(C)c1ncnc2[nH]ccc12 [tofacitinib citrate]
- IL-6 expression in plasma ([1]; PO or IC administration, 1 h and 3 h post-treatment): inhibition of IL-6 expression
- inhibition of IL-6 expression in colon tissue ([1]; all IC treated groups and high dose PO group (45 mg/kg) (FIG. 112B)): sustained through 24 h post-dose
- GM-CSF levels in plasma or colon tissue ([1]; between IC and PO treatment groups): nor was there a significant difference
- IL-6 inhibition in colon tissue ([1]; low dose PO group (15 mg/kg), by 12 h post-dose): Recovery from IL-6 inhibition was observed

Structure (SMILES): C=CC[C@@H]1/C=C(\C)C[C@H](C)C[C@H](OC)[C@H]2O[C@@](O)(C(=O)C(=O)N3CCCC[C@H]3C(=O)O[C@H](/C(C)=C/[C@@H]3CC[C@@H](O)[C@H](OC)C3)[C@H](C)[C@@H](O)CC1=O)[C@H](C)C[C@@H]2OC [tacrolimus]
- concentration at 12 h ([2]; 0.02 mg/kg): 0.746 ± 0.038 ng/mL
- concentration at 12 h ([2]; 0.04 mg/kg): 1.96 ± 0.491 ng/mL
- concentration at 12 h ([2]; 0.09 mg/kg): 4.35 ± 0.516 ng/mL
- concentration at 12 h ([2]; po, 0.09 mg/kg): 0.568 ± 0.291 ng/mL
- exposure AUC [3]: < 2000-12 ng·h/mL
- mean concentration of tacrolimus in the cecum tissue and the proximate colon tissue [3]: higher
- tissue (spiral and transverse colon) and luminal content (spiral, transverse, and distal colon) concentrations [3]: Significantly higher
- level of tacrolimus in tissue ([3]; po): No measurable level
- rectal content concentration ([3]; po): no detectable level
- Tissue(mean) (ng/g)/AUG(0-12 hr) (ng · hr/mL) Ratio [4]: 0
- Tissue(mean) (ng/g)/AUG(0-12 hr) (ng · hr/mL) Ratio ([4]; 12 h): 0
- concentration at 12 h ([5]; female, Yorkshire-Cross, swine, 0.02 mg/kg, Trough (12 hr)): 0.746 ± 0.038 ng/mL
- concentration at 12 h ([5]; female, Yorkshire-Cross, swine, 0.04 mg/kg, Trough (12 hr)): 1.96 ± 0.491 ng/mL
- concentration at 12 h ([5]; female, Yorkshire-Cross, swine, 0.09 mg/kg, Trough (12 hr)): 4.35 ± 0.561 ng/mL
- Ratio Tissue(mean)/Trough(12 hr) ([5]; female, Yorkshire-Cross, swine, po, 0.09 mg/kg, 12 h): 0
- Kp at 12 h ([5]; female, Yorkshire-Cross, swine, po, 0.09 mg/kg, Ratio Tissue(mean)/Trough(12 hr)): 0
- concentration at 12 h ([5]; female, Yorkshire-Cross, swine, po, 0.09 mg/kg, Trough (12 hr)): 0.568 ± 0.291 ng/mL
- concentration at 12 h ([5]; female, Yorkshire-Cross, swine, po, 0.09 mg/kg, Trough level (12 hr)): 0.568 ng/mL
- mean concentration of tacrolimus in the spiral colon lumen, the transverse colon lumen, and the distal colon lumen [5]: statistically higher
- mean concentration of tacrolimus in the spiral colon tissue and the transverse colon tissue [5]: statistically higher
- mean concentration and AUC0-12 hours of tacrolimus in the blood ([5]; po, 0.09 mg/kg): higher
